Values after ≈ are worked out from the molar mass of the structure shown. Read-outs that look alike come from different tables or passages of the source.
Tests used:
[1] = Physicochemical properties of tazarotene
[2] = cited from earlier work
[3] = system: retinoic acid receptor (RAR) family: RARα, RARβ, and RARγ; details: cited from earlier work

SMILES | crystalline drug by DSC or PXRD analysis ([1]; at 1% or at 4% in Compritol) | solubility ([1]; isopropyl myristate, oil or lipid, read-out: Solubility in isopropyl myristate) [µg/mL] | solubility ([1]; water, read-out: Solubility in water) [µg/mL] | pKa [2] | binding to RARα, RARβ and RARγ [3] | selectivity among RARs [3]
CCOC(=O)c1ccc(C#Cc2ccc3c(c2)C(C)(C)CCS3)nc1 [Tazarotene, Ethyl 6-[(4,4-dimethylthiochroman-6-yl)ethynyl]nicotinate] | no crystalline drug was detected | 7400 (≈ 21.1 mM) | < 1 | 1.5^(1) |  | 
CC1(C)CCSc2ccc(C#Cc3ccc(C(=O)O)cn3)cc21 [Tazarotenic acid] |  |  |  |  | binds to all three members | relative selectivity for RARβ, and RARγ

— patent publication US20150209343A1, “TOPICAL DERMAL COMPOSITIONS” (Allergan, Inc., priority 2014, published 2015)
